Assay results as given in patent US4303785A, “Antitumor anthracycline antibiotics” (priority 1978, dated 1981).
In brackets after ≈: the same amount, converted by molar mass. Like-named read-outs stand apart in the source and are kept apart here.

How the values were obtained:
[1] = test system: Bacillus cereus ATCC 10702; experiment: Minimum inhibitory concentration, broth dilution method (Table 3); type: cell-based; conditions: ATCC10702
Description: (§1) To illustrate such activity, minimum inhibitory concentrations (as determined by the broth dilution method) of representative compounds are shown in Table 3.

Bacillus megaterium APF = experiment: as above; type: cell-based
Description: as §1

[2] = test system: Bacillus subtillis NRRLB-558; experiment: as above; type: cell-based; conditions: Bacillus, NRRLB558, Bacillus subtillis NRRLB-558
Description: as §1

Candida albicans = experiment: as above; type: cell-based
Description: as §1

[3] = test system: Corynebacterium bovis 1810; experiment: as above; type: cell-based
Description: as §1

Escherichia coli NIHJ = experiment: as above; type: cell-based
Description: as §1

[4] = test system: Micrococcus flavus FDA 16; experiment: as above; type: cell-based; conditions: Micrococcus flavus, FDA16, Micrococcus flavus FDA 16
Description: as §1

[5] = test system: Mycobacterium smegmatis ATCC 607; experiment: as above; type: cell-based; conditions: Mycolicibacterium smegmatis, ATCC607
Description: as §1

[6] = test system: Pseudomonas aeruginosa A3; experiment: as above; type: cell-based; conditions: Pseudomonas aeruginosa, A3, Pseudomonas aeruginosa A3
Description: as §1

Sarcina lutea PCI 1001 = experiment: as above; type: cell-based; conditions: Micrococcus luteus, PCI1001
Description: as §1

Staph. aureus FDA 209P = experiment: as above; type: cell-based; conditions: Staphylococcus aureus, FDA209P
Description: as §1

Staph. aureus Smith = experiment: as above; type: cell-based
Description: as §1

L1210 leukemia cells = experiment: Growth inhibitory effect on L1210 cells in culture (Table 4); type: cell-based; conditions: Mus musculus
Protocol: For example, L1210 cells (5×10^4 cells/ml.) were inoculated in RPMI 1640 medium (Roswell Park Memorial Institute 1640) containing 20% calf serum and cultivated at 37° C. in the presence of 0.1 and 0.5 μg./ml. of the test compounds in a CO2 incubator.

L1210 cells [7] = experiment: Inhibition of 14C-uridine and 14C-thymidine incorporation (nucleic acid synthesis) in L1210 cells in culture (Table 5); type: cell-based; conditions: Mus musculus, L1210, 1 h
Protocol: The effect of the tetrahydropyranyl ether derivatives of formula I' on nucleic acid synthesis was examined as follows: […]
1×10^5 cells/ml. of L1210 cells were suspended in RPMI medium containing 10% calf serum, pre-cultivated at 37° C. for 1 to 2 hours in a CO2 incubator and then the test compounds were added to the medium at various concentrations. After 15 min. of incubation, ^14 C-uridine (0.05 μCi/ml.) or ^14 C-thymidine (0.05 μCi/ml.) was added and incubated at 37° C. for 60 min. Trichloroacetic acid (TCA) (10%) was added to the incubation medium to stop the reaction and precipitate the acid-insoluble materials, and then the precipitate was washed three times with 5 to 10% […]. The radioactivity was measured and expressed as 50% inhibition concentration of incorporation.

L1210 leukemia = experiment: Antitumor activity in BDF1 mice inoculated with L1210 leukemia cells (Table 6); type: in vivo; conditions: once daily for 10 days
Description: As an example, BDF1 mice were inoculated intraperitoneally with 1×10^6 cells/mouse of L1210 leukemia cells.

[8] = test system: NADPH-cytochrome P450 reductase; experiment: Stability on rat hepatic NADPH-cytochrome P450 reductase: 7-deoxyaglycone formed (Table 7); type: in vitro ADME; conditions: 25° C., 25 min., nitrogen; substrate 0.1 mM, NADPH 0.2 mM, enzyme 4.6 μg./ml, pH 8.0
Protocol: C. The marked antitumor effects seen from A and B above were confirmed by the stability of the test compounds on the inactivation by hepatic NADPH-cytochrome P450 reductase. Specifically, NADPH-cytochrome P450 reductase purified from rat liver homogenate was incubated with the tetrahydropyranyl ether derivatives of formula I' at 25° C. for 25 min. in nitrogen gas phase, and the incubation product formed, 7-deoxyaglycone, was determined as shown in Table 7.

L1210 cells [9] = experiment: animal or person; type: in vivo, CDF1 mice; conditions: once daily for 10 days; for response vs control in vivo at 0.15 mg/kg: 0.15 mg/kg/day i.p.; for response vs control in vivo at 0.31 mg/kg: 0.31 mg/kg/day i.p.; for response vs control in vivo at 0.625 mg/kg: 0.625 mg/kg/day i.p.; for response vs control in vivo at 1.25 mg/kg: 1.25 mg/kg/day i.p.; for response vs control in vivo at 2.5 mg/kg: 2.5 mg/kg/day i.p.
Protocol: D. Representative compounds of general formula I" were tested against experimental animal tumors as follows: […]
CDF1 mice were administered intraperitoneally (i.p.) with 1×10^5 cells/mouse of L1210 cells. After 24 hours had elapsed since inoculation, the mice were administered the test compounds intraperitoneally once daily for 10 consecutive days and observed for a 45 day period.
The antitumor activity was shown by the prolongation rate of survival day (T/C, %) to the survival day of control mice injected with physiological saline.

[10] = test system: various experimental tumors; conditions: cited from earlier work
[11] = cited from earlier work
[12] = L1210, read-out: Inhibition Rate (growth)
[13] = read-out: 50% Inhibition Concentration of 14C-Thymidine Incorporation
[14] = read-out: 50% Inhibition Concentration of 14C-Uridine Incorporation
[15] = Mus musculus, L1210, ip, 1080 h, read-out: Antitumor Activity (T/C, prolongation rate of survival day)

SMILES | Antitumor Activity (T/C, prolongation rate of survival day) (L1210 leukemia; 0.15 mg./kg./day i.p.) | Antitumor Activity (T/C, prolongation rate of survival day) (L1210 leukemia; 0.3 mg./kg./day i.p.) | Antitumor Activity (T/C, prolongation rate of survival day) (L1210 leukemia; 5 mg./kg./day i.p.) | inhibition at 0.1 µg/mL (L1210 leukemia cells; [12]) | inhibition at 0.5 µg/mL (L1210 leukemia cells; [12]) | IC50 (L1210 cells [7]; [13]) | IC50 (L1210 cells [7]; [14]) | response vs control in vivo at 0.15 mg/kg (L1210 cells [9]; [15]) | response vs control in vivo at 0.31 mg/kg (L1210 cells [9]; [15]) | response vs control in vivo at 0.625 mg/kg (L1210 cells [9]; [15]) | response vs control in vivo at 1.25 mg/kg (L1210 cells [9]; [15]) | response vs control in vivo at 2.5 mg/kg (L1210 cells [9]; [15]) | antitumor spectrum [10] | also measured
COc1cccc2c1C(=O)c1c(O)c3c(c(O)c1C2=O)C[C@@](O)(C(C)=O)C[C@@H]3O[C@H]1C[C@H](N)[C@H](OC2CCCCO2)[C@H](C)O1 (single isomer, unassigned; isomer a) [4'-O-PDa, 4'-O-tetrahydropyranyl daunomycin (isomer a)] | 90% | 96% | > 320% | – | – | – | – | – | – | – | – | – | – | MIC [1]: 6.25 µg/mL (≈ 10.2 µM); Minimum Inhibitory Concentration (MIC) (Bacillus megaterium APF): 6.25 µg/mL; MIC [2]: 3.12 µg/mL (≈ 5.1 µM); MIC (Candida albicans): > 50 µg/mL; MIC [3]: 0.78 µg/mL (≈ 1.28 µM); MIC (Escherichia coli NIHJ): > 100 µg/mL; MIC [4]: 0.78 µg/mL (≈ 1.28 µM); MIC [5]: 6.25 µg/mL (≈ 10.2 µM); MIC [6]: > 100 µg/mL; MIC (Sarcina lutea PCI 1001): 0.39 µg/mL (≈ 0.638 µM); MIC (Staph. aureus FDA 209P): 6.25 µg/mL (≈ 10.2 µM); Minimum Inhibitory Concentration (MIC) (Staph. aureus Smith): 12.5 µg/mL; inhibition at 0.1 µg/mL (L1210 leukemia cells; L1210, 0.1 μg./ml., read-out: Inhibition Rate (growth)): 79.2%; inhibition at 0.5 µg/mL (L1210 leukemia cells; L1210, 0.5 μg./ml., read-out: Inhibition Rate (growth)): 95%; IC50 (L1210 cells [7]; thymidine, 60 min. at 37° C., read-out: 50% Inhibition Concentration of 14C-Thymidine Incorporation): 0.28 µg/mL (≈ 0.458 µM); IC50 (L1210 cells [7]; uridine, 60 min. at 37° C., read-out: 50% Inhibition Concentration of 14C-Uridine Incorporation): 0.13 µg/mL (≈ 0.213 µM); Antitumor Activity (T/C, prolongation rate of survival day) (L1210 leukemia; 0.6 mg./kg./day i.p.): 115%; Antitumor Activity (T/C, prolongation rate of survival day) (L1210 leukemia; 1.25 mg./kg./day i.p.): 122%; Antitumor Activity (T/C, prolongation rate of survival day) (L1210 leukemia; 2.5 mg./kg./day i.p.): > 320%; Product (7-Deoxyaglycone) [8]: 37.3 nmoles/tube
COc1cccc2c1C(=O)c1c(O)c3c(c(O)c1C2=O)C[C@@](O)(C(=O)CO)C[C@@H]3O[C@H]1C[C@H](N)[C@H](O)[C@H](C)O1 [Adriamycin, adriamycin, reference compound] | 128% | 165% | toxic | 70.7% | 84.2% | 2.1 µg/mL (≈ 3.86 µM) | 0.5 µg/mL (≈ 0.92 µM) | 130% | 147% | 239% | 272% | 351% | broad antitumor spectrum against various experimental tumors | response vs control in vivo at 5 mg/kg (L1210 cells [9]; Mus musculus, L1210, ip, 1080 h, 5 mg/kg/day i.p., read-out: Antitumor Activity (T/C, prolongation rate of survival day)): 189%; side effects in clinical use ([11]; clinical antitumor agents): severe side effects such as alopecia, leukopenia and cardiotoxicity
COc1cccc2c1C(=O)c1c(O)c3c(c(O)c1C2=O)C[C@@](O)(C(C)=O)C[C@@H]3O[C@H]1C[C@H](N)[C@H](O)[C@H](C)O1 [Daunomycin, daunomycin, reference compound] | – | – | – | 68.8% | 72.7% | 0.7 µg/mL (≈ 1.33 µM) | 0.4 µg/mL (≈ 0.758 µM) | 118% | 132% | 145% | 191% | 138% | broad antitumor spectrum against various experimental tumors | Antitumor Activity (T/C, prolongation rate of survival day) (L1210 cells [9]; 5 mg/kg/day i.p.): Tox.; side effects in clinical use ([11]; in vivo): severe side effects such as alopecia, leukopenia and cardiotoxicity
